Reference: the NIST ThermoML archive (doi:10.1016/j.jct.2013.03.020)
Values joined by “and” are separate entries in the source; they are usually repeats but may differ in a detail not shown here. Equal entries are not always repeated. ± gives the expanded uncertainty stated by the source.

Details: Liquid, Closed cell (Static) method

O [water]
Details	vapor or sublimation pressure
273.15 K	0.5798 ± 0.013 kPa
283.15 K	1.183 ± 0.026 kPa
293.15 K	2.277 ± 0.047 kPa
303.15 K	4.165 ± 0.085 kPa
313.15 K	7.284 ± 0.15 kPa
323.15 K	12.23 ± 0.25 kPa
333.15 K	19.82 ± 0.4 kPa
343.15 K	31.09 ± 0.63 kPa and 30.82 ± 0.62 kPa
353.15 K	47.34 ± 0.95 kPa
363.15 K	70.22 ± 1.4 kPa

CCN1CCOCC1 [4-ethylmorpholine]
Details	vapor or sublimation pressure
283.15 K	0.5816 ± 0.013 kPa
283.98 K	0.6293 ± 0.014 kPa
293.15 K	1.083 ± 0.024 kPa
293.93 K	1.142 ± 0.025 kPa
303.15 K	1.918 ± 0.04 kPa
303.86 K	1.985 ± 0.041 kPa and 1.989 ± 0.041 kPa
313.15 K	3.253 ± 0.067 kPa
323.15 K	5.304 ± 0.11 kPa
323.78 K	5.303 ± 0.11 kPa
333.15 K	8.353 ± 0.17 kPa
333.91 K	8.702 ± 0.18 kPa
343.15 K	12.75 ± 0.26 kPa
343.88 K	13.07 ± 0.26 kPa
353.15 K	18.92 ± 0.38 kPa
353.9 K	18.88 ± 0.38 kPa
363.15 K	27.37 ± 0.56 kPa
363.86 K	28.78 ± 0.58 kPa

CC(C)N(C)C [N,N-dimethylisopropylamine]
Details	vapor or sublimation pressure
273.15 K	6.65 ± 0.14 kPa
274.58 K	7.183 ± 0.15 kPa and 7.185 ± 0.15 kPa and 7.197 ± 0.15 kPa
283.15 K	11.11 ± 0.22 kPa
283.86 K	11.39 ± 0.23 kPa
293.15 K	17.77 ± 0.36 kPa
293.81 K	18.3 ± 0.37 kPa and 18.39 ± 0.37 kPa
303.15 K	27.37 ± 0.55 kPa
303.82 K	28.18 ± 0.57 kPa
313.15 K	40.76 ± 0.82 kPa
313.79 K	41.76 ± 0.84 kPa and 41.79 ± 0.84 kPa and 41.8 ± 0.84 kPa
323.15 K	58.9 ± 1.2 kPa
324.02 K	60.66 ± 1.2 kPa and 60.72 ± 1.2 kPa
333.15 K	82.89 ± 1.7 kPa
334.05 K	85.36 ± 1.7 kPa [middle of 4 runs]

CN(C)CCO [2-(N,N-dimethylamino)ethanol]
Details	vapor or sublimation pressure
273.15 K	0.142 ± 0.004 kPa
273.86 K	0.149 ± 0.0036 kPa
282.97 K	0.2938 ± 0.0067 kPa and 0.2945 ± 0.0067 kPa
283.15 K	0.2979 ± 0.0068 kPa
292.89 K	0.5824 ± 0.013 kPa
292.91 K	0.5823 ± 0.013 kPa and 0.5822 ± 0.013 kPa
293.15 K	0.59 ± 0.013 kPa
302.89 K	1.095 ± 0.024 kPa and 1.096 ± 0.024 kPa
303.15 K	1.11 ± 0.024 kPa
312.86 K	1.963 ± 0.041 kPa
313.15 K	1.993 ± 0.041 kPa
323.03 K	3.392 ± 0.07 kPa
323.15 K	3.435 ± 0.071 kPa
333.06 K	5.626 ± 0.11 kPa
333.15 K	5.705 ± 0.12 kPa
343.05 K	9.047 ± 0.19 kPa
343.15 K	9.165 ± 0.19 kPa
353.04 K	14.45 ± 0.3 kPa
353.15 K	14.29 ± 0.29 kPa
363.1 K	21.59 ± 0.43 kPa
363.15 K	21.66 ± 0.44 kPa
